Some test systems named below: LOX IMVI melanoma; OVCAR-4 ovarian; HL-60(TB) leukemia; OVCAR-5 ovarian; UACC-62 melanoma; SNB-75 CNS; SK-MEL-28 melanoma; HCC-2998 colon; K-562 leukemia.
Common to all, as to assay: growth of human tumour cells (NCI), 48 h

SMILES strings stand for the structures.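 Step 1: Grow cells in 96-well plates. Step 2: Expose to compound for 48 hours at 5 concentrations. Step 3: Interpolate endpoints linearly; if unreached, use highest concentration. The concentration for full growth arrest is given as TGI.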

Consider `O=C(N/N=C/c1cc(Br)cc(Br)c1[O-])c1ccccc1O.O=C(N/N=C/c1cc(Br)cc(Br)c1[O-])c1ccccc1O.[Fe+2]`, for which the TGI with LOX IMVI melanoma came to 22.7 µM; in the assay on OVCAR-4 ovarian, 18.4 µM; in the assay with HL-60(TB) leukemia, 11.2 µM; with OVCAR-5 ovarian, 15.8 µM; in the assay on UACC-62 melanoma, 10.5 µM; with SNB-75 CNS it was 27.7 µM. Besides, the TGI amounted to 21.6 µM in the assay with SK-MEL-28 melanoma and 12.5 µM in the assay with HCC-2998 colon.

With `COc1c(Br)cc(CC(N)=O)c(O)c1Br`, the TGI in the assay with LOX IMVI melanoma, with K-562 leukemia, with OVCAR-4 ovarian, in the assay with HL-60(TB) leukemia, with OVCAR-5 ovarian and in the assay with UACC-62 melanoma was greater than 100 µM in each case. The TGI with SNB-75 CNS, in the assay with SK-MEL-28 melanoma and in the assay on HCC-2998 colon was greater than 100 µM each time.

Turning to `O=C(CC1=NCCN1)c1ccccc1`, the TGI in the assay on LOX IMVI melanoma, in the assay on K-562 leukemia, in the assay with OVCAR-4 ovarian, in the assay with HL-60(TB) leukemia, in the assay on OVCAR-5 ovarian and in the assay with UACC-62 melanoma was greater than 750 µM each time. Moreover, the TGI in the assay on SNB-75 CNS, with SK-MEL-28 melanoma and with HCC-2998 colon was greater than 750 µM in each case.

With `NC(N)=Nc1ncccc1[N+](=O)[O-]`, the TGI in the assay with LOX IMVI melanoma was greater than 100 µM; in the assay on K-562 leukemia it was greater than 100 µM; with OVCAR-4 ovarian it was greater than 100 µM; with HL-60(TB) leukemia, 44.4 µM; in the assay on OVCAR-5 ovarian, greater than 100 µM; in the assay with UACC-62 melanoma, greater than 100 µM. Moreover, the TGI with SNB-75 CNS, in the assay on SK-MEL-28 melanoma and in the assay with HCC-2998 colon was greater than 100 µM each time.

As for `COC1(OC)CCCCC2c3cccc(OC(C)=O)c3C21OC(C)=O` (stereo unspecified), the TGI in the assay on LOX IMVI melanoma, in the assay on K-562 leukemia, in the assay on OVCAR-4 ovarian, in the assay on HL-60(TB) leukemia, in the assay on OVCAR-5 ovarian and with UACC-62 melanoma was greater than 100 µM throughout. The TGI in the assay with SNB-75 CNS, in the assay on SK-MEL-28 melanoma and with HCC-2998 colon was greater than 100 µM throughout.

Consider `O=C(Nc1cccc(O)c1)C(=O)C(C(=O)c1ccccc1F)C1OC(=O)c2ccccc21` (stereo unspecified), for which the TGI with LOX IMVI melanoma is 47.1 µM; in the assay on K-562 leukemia it was greater than 100 µM; in the assay on OVCAR-4 ovarian it was greater than 100 µM; with HL-60(TB) leukemia, 87.7 µM; in the assay with OVCAR-5 ovarian, greater than 100 µM; with UACC-62 melanoma it was 37.8 µM. For the same compound, the results for the TGI in the assay with SNB-75 CNS, with SK-MEL-28 melanoma and in the assay with HCC-2998 colon were 53.1 µM, 92.9 µM and 39.4 µM, respectively.

Regarding `O=C(O)C(CO)NC(=O)n1c2ccccc2c2ccccc21` (stereo unspecified), the TGI with LOX IMVI melanoma, with K-562 leukemia, in the assay with HL-60(TB) leukemia, with UACC-62 melanoma, with SK-MEL-28 melanoma and in the assay with HCC-2998 colon was greater than 100 µM each time.

With `O=C(O)C(CS)N=c1c2ccccc2n(O)c2ccccc12` (stereo unspecified), the TGI with LOX IMVI melanoma, in the assay on K-562 leukemia, in the assay with OVCAR-4 ovarian, in the assay with HL-60(TB) leukemia, with OVCAR-5 ovarian and in the assay with UACC-62 melanoma was greater than 100 µM throughout. Besides, the TGI in the assay on SNB-75 CNS, with SK-MEL-28 melanoma and in the assay on HCC-2998 colon was greater than 100 µM in each case.

In the case of `O=C1NC2OC(CO)C(O)C(O1)C2O` (stereo unspecified), the TGI with LOX IMVI melanoma, with K-562 leukemia, in the assay on OVCAR-4 ovarian, in the assay on HL-60(TB) leukemia, in the assay with OVCAR-5 ovarian and in the assay on UACC-62 melanoma was greater than 100 µM throughout. Also, the TGI in the assay with SNB-75 CNS and with SK-MEL-28 melanoma was greater than 100 µM in each case.

For `C=CCOCCCCC(C(C)=O)C(=O)OC` (stereo unspecified), the TGI in the assay with LOX IMVI melanoma, in the assay on K-562 leukemia, in the assay on OVCAR-4 ovarian, in the assay on HL-60(TB) leukemia, in the assay on OVCAR-5 ovarian and with UACC-62 melanoma was greater than 100 µM throughout. For the same compound, the TGI in the assay with SNB-75 CNS, in the assay on SK-MEL-28 melanoma and with HCC-2998 colon was greater than 100 µM each time.

Consider `CC(C)(C)C1CCC2(CC1)c1[nH]c3ccccc3c1C1(CCC(C(C)(C)C)CC1)c1[nH]c3ccccc3c12` (stereo unspecified), for which the TGI with LOX IMVI melanoma, in the assay with K-562 leukemia, with OVCAR-4 ovarian, with HL-60(TB) leukemia, in the assay with OVCAR-5 ovarian and in the assay with UACC-62 melanoma was greater than 100 µM each time. Moreover, the TGI with SNB-75 CNS, in the assay on SK-MEL-28 melanoma and with HCC-2998 colon was greater than 100 µM throughout.

Regarding `O=C(N/N=C/c1ccco1)c1cc(I)cc(I)c1O`, the TGI with LOX IMVI melanoma is greater than 50 µM; with K-562 leukemia, greater than 50 µM; in the assay on OVCAR-4 ovarian, greater than 50 µM; in the assay on HL-60(TB) leukemia, 27.7 µM; with OVCAR-5 ovarian it was 40.9 µM; in the assay with UACC-62 melanoma, greater than 50 µM. Also, the TGI in the assay with SNB-75 CNS and with SK-MEL-28 melanoma was greater than 50 µM each time.

On to `C=C1C(=O)O[C@@]23C1CC[C@@H](C)C2CC[C@@]1(C)OC31` (stereo partly specified), for which the TGI in the assay on LOX IMVI melanoma amounted to 26.6 µM; in the assay on K-562 leukemia, 66.1 µM; with OVCAR-4 ovarian it was 25.3 µM; in the assay on HL-60(TB) leukemia it was 10.6 µM; with OVCAR-5 ovarian it was 26.7 µM; in the assay on UACC-62 melanoma, 27.1 µM. Further, the TGI in the assay on SNB-75 CNS was 8.52 µM; in the assay on SK-MEL-28 melanoma, 22.6 µM; in the assay on HCC-2998 colon, 16.2 µM.

The values above are taken from PubChem BioAssay (NCI).
